Tested on: HL-60
Assay: area under dose-response curve (viability, 1 nM-10 uM) (fraction (0-1)); higher = more sensitive
Conditions: 72 h; co-treatment: pictilisib 100 nM
Summary of the method: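 In 384-well plates, the full library was rescreened in duplicate on HL-60 cells in RPMI 1640 with 10% FBS, at 1–10,000 nM in five tenfold concentrations, for 72 h at 37 °C, 5% CO2. Each run also held DMSO or 100 nM of one of three metabolic inhibitors. Viability was measured by CellTiter-Glo and normalised to DMSO wells and to wells with proteasome inhibitor, present at 10 μM. Any area under the curve comes from four-parameter log-logistic fitting with drc and PharmacoGx.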

Structure (SMILES)	area under dose-response curve
OCCN1C[C@H](O)[C@@H](O)[C@H](O)[C@H]1CO [Miglitol]	< 0.0301
CCCCCCCCCCCCC/C=C/[C@@H](O)[C@H](CO)N(C)C [N,N-Dimethylsphingosine]	0.0441
CCCCCCCNC=O [N-Heptyl-Formamide]	< 0.0301

Tested on: KG-1
Assay: not given
Conditions: 72 h
Summary of the method: (§1)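 Fifteen myeloid leukaemia cell lines were seeded in RPMI 1640 at a density titrated to the linear growth range. Each line went into 384-well plates with compounds acoustically pre-printed at five tenfold doses from 1 to 10,000 nM, in duplicate, and was incubated for 72 h at 37 °C with 5% CO2. Luminescent ATP viability was normalised to vehicle and to a positive control at 10 µM. The IC50 came from four-parameter log-logistic dose–response fits.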

Structure (SMILES)	IC50 (cell viability) [µM]
O=C(Oc1ccc([N+](=O)[O-])cc1)N1CCC(C(O)(c2ccc3c(c2)OCO3)c2ccc3c(c2)OCO3)CC1 [JZL184]	> 10
O=C1N[C@@H]2[C@@H](O)[C@@H](O)[C@H](O)[C@@H](CO)N2C1=O [Kifunensine]	> 10
CC(C)(CCCCCCCCCCC(C)(C)CC(=O)O)CC(=O)O [MEDICA 16]	> 10
Cc1nnc(-c2ccc(N3CCC(Oc4ccccc4C(F)(F)F)CC3)nn2)s1 [MF-438]	> 10
CC(C)c1ccc2c(c1)c(SC(C)(C)C)c(CC(C)(C)C(=O)O)n2Cc1ccc(Cl)cc1 [MK-886]	> 10
O=C(CCl)N(CCCNC(=O)C(F)(F)F)c1ccc([N+](=O)[O-])cc1 [ML175]	0.341
CN(C)C(=N)NC(=N)N [Metformin]	> 10
Cl.OC[C@H]1NC[C@H](O)[C@@H](O)[C@H]1O [Migalastat]	> 10
OCCN1C[C@H](O)[C@@H](O)[C@H](O)[C@H]1CO [Miglitol]	> 10
CCCCCCCCCCCCC/C=C/[C@@H](O)[C@H](CO)N(C)C [N,N-Dimethylsphingosine]	3.58
CCCCCCCNC=O [N-Heptyl-Formamide]	> 10

Tested on: KU-812
Assay: not given
Conditions: 72 h
Summary of the method: as §1

Structure (SMILES)	IC50 (cell viability) [µM]
O=C(Oc1ccc([N+](=O)[O-])cc1)N1CCC(C(O)(c2ccc3c(c2)OCO3)c2ccc3c(c2)OCO3)CC1 [JZL184]	> 10
O=C1N[C@@H]2[C@@H](O)[C@@H](O)[C@H](O)[C@@H](CO)N2C1=O [Kifunensine]	> 10
CC(C)(CCCCCCCCCCC(C)(C)CC(=O)O)CC(=O)O [MEDICA 16]	> 10
Cc1nnc(-c2ccc(N3CCC(Oc4ccccc4C(F)(F)F)CC3)nn2)s1 [MF-438]	> 10
CC(C)c1ccc2c(c1)c(SC(C)(C)C)c(CC(C)(C)C(=O)O)n2Cc1ccc(Cl)cc1 [MK-886]	> 10
O=C(CCl)N(CCCNC(=O)C(F)(F)F)c1ccc([N+](=O)[O-])cc1 [ML175]	2.23
CN(C)C(=N)NC(=N)N [Metformin]	> 10
Cl.OC[C@H]1NC[C@H](O)[C@@H](O)[C@H]1O [Migalastat]	> 10
OCCN1C[C@H](O)[C@@H](O)[C@H](O)[C@H]1CO [Miglitol]	> 10
CCCCCCCCCCCCC/C=C/[C@@H](O)[C@H](CO)N(C)C [N,N-Dimethylsphingosine]	> 10
CCCCCCCNC=O [N-Heptyl-Formamide]	> 10

Tested on: HL-60
Assay: not given
Conditions: 72 h
Summary of the method: as §1

Structure (SMILES)	IC50 (cell viability) [µM]
O=C(Oc1ccc([N+](=O)[O-])cc1)N1CCC(C(O)(c2ccc3c(c2)OCO3)c2ccc3c(c2)OCO3)CC1 [JZL184]	> 10
O=C1N[C@@H]2[C@@H](O)[C@@H](O)[C@H](O)[C@@H](CO)N2C1=O [Kifunensine]	> 10
CC(C)(CCCCCCCCCCC(C)(C)CC(=O)O)CC(=O)O [MEDICA 16]	> 10
Cc1nnc(-c2ccc(N3CCC(Oc4ccccc4C(F)(F)F)CC3)nn2)s1 [MF-438]	> 10
CC(C)c1ccc2c(c1)c(SC(C)(C)C)c(CC(C)(C)C(=O)O)n2Cc1ccc(Cl)cc1 [MK-886]	> 10
O=C(CCl)N(CCCNC(=O)C(F)(F)F)c1ccc([N+](=O)[O-])cc1 [ML175]	2.13
CN(C)C(=N)NC(=N)N [Metformin]	> 10
Cl.OC[C@H]1NC[C@H](O)[C@@H](O)[C@H]1O [Migalastat]	> 10
OCCN1C[C@H](O)[C@@H](O)[C@H](O)[C@H]1CO [Miglitol]	> 10
CCCCCCCCCCCCC/C=C/[C@@H](O)[C@H](CO)N(C)C [N,N-Dimethylsphingosine]	> 10
CCCCCCCNC=O [N-Heptyl-Formamide]	> 10

Tested on: SHI-1
Assay: not given
Conditions: 72 h
Summary of the method: as §1

Structure (SMILES)	IC50 (cell viability) [µM]
O=C(Oc1ccc([N+](=O)[O-])cc1)N1CCC(C(O)(c2ccc3c(c2)OCO3)c2ccc3c(c2)OCO3)CC1 [JZL184]	> 10
O=C1N[C@@H]2[C@@H](O)[C@@H](O)[C@H](O)[C@@H](CO)N2C1=O [Kifunensine]	> 10
CC(C)(CCCCCCCCCCC(C)(C)CC(=O)O)CC(=O)O [MEDICA 16]	> 10
Cc1nnc(-c2ccc(N3CCC(Oc4ccccc4C(F)(F)F)CC3)nn2)s1 [MF-438]	> 10
CC(C)c1ccc2c(c1)c(SC(C)(C)C)c(CC(C)(C)C(=O)O)n2Cc1ccc(Cl)cc1 [MK-886]	> 10
O=C(CCl)N(CCCNC(=O)C(F)(F)F)c1ccc([N+](=O)[O-])cc1 [ML175]	3.41
CN(C)C(=N)NC(=N)N [Metformin]	> 10
Cl.OC[C@H]1NC[C@H](O)[C@@H](O)[C@H]1O [Migalastat]	> 10
OCCN1C[C@H](O)[C@@H](O)[C@H](O)[C@H]1CO [Miglitol]	> 10
CCCCCCCCCCCCC/C=C/[C@@H](O)[C@H](CO)N(C)C [N,N-Dimethylsphingosine]	> 10
CCCCCCCNC=O [N-Heptyl-Formamide]	> 10

Tested on: K-562
Assay: not given
Conditions: 72 h
Summary of the method: as §1

Structure (SMILES)	IC50 (cell viability) [µM]
O=C(Oc1ccc([N+](=O)[O-])cc1)N1CCC(C(O)(c2ccc3c(c2)OCO3)c2ccc3c(c2)OCO3)CC1 [JZL184]	> 10
O=C1N[C@@H]2[C@@H](O)[C@@H](O)[C@H](O)[C@@H](CO)N2C1=O [Kifunensine]	> 10
CC(C)(CCCCCCCCCCC(C)(C)CC(=O)O)CC(=O)O [MEDICA 16]	> 10
Cc1nnc(-c2ccc(N3CCC(Oc4ccccc4C(F)(F)F)CC3)nn2)s1 [MF-438]	0.0472
CC(C)c1ccc2c(c1)c(SC(C)(C)C)c(CC(C)(C)C(=O)O)n2Cc1ccc(Cl)cc1 [MK-886]	> 10
O=C(CCl)N(CCCNC(=O)C(F)(F)F)c1ccc([N+](=O)[O-])cc1 [ML175]	2.95
CN(C)C(=N)NC(=N)N [Metformin]	> 10
Cl.OC[C@H]1NC[C@H](O)[C@@H](O)[C@H]1O [Migalastat]	> 10
OCCN1C[C@H](O)[C@@H](O)[C@H](O)[C@H]1CO [Miglitol]	> 10
CCCCCCCCCCCCC/C=C/[C@@H](O)[C@H](CO)N(C)C [N,N-Dimethylsphingosine]	> 10
CCCCCCCNC=O [N-Heptyl-Formamide]	> 10

Tested on: MOLM-13
Assay: not given
Conditions: 72 h
Summary of the method: as §1

Structure (SMILES)	IC50 (cell viability) [µM]
O=C(Oc1ccc([N+](=O)[O-])cc1)N1CCC(C(O)(c2ccc3c(c2)OCO3)c2ccc3c(c2)OCO3)CC1 [JZL184]	> 10
O=C1N[C@@H]2[C@@H](O)[C@@H](O)[C@H](O)[C@@H](CO)N2C1=O [Kifunensine]	> 10
CC(C)(CCCCCCCCCCC(C)(C)CC(=O)O)CC(=O)O [MEDICA 16]	> 10
Cc1nnc(-c2ccc(N3CCC(Oc4ccccc4C(F)(F)F)CC3)nn2)s1 [MF-438]	0.0687
CC(C)c1ccc2c(c1)c(SC(C)(C)C)c(CC(C)(C)C(=O)O)n2Cc1ccc(Cl)cc1 [MK-886]	> 10
O=C(CCl)N(CCCNC(=O)C(F)(F)F)c1ccc([N+](=O)[O-])cc1 [ML175]	0.276

— the supplement of paper PMC8671470
